The target in test [1] is T1, hCPT2 (Homo sapiens, UniProt P23786).
T1 construct: made in house; host or cells: Pichia pastoris strain X-33
T1 sequence (P23786 26-658): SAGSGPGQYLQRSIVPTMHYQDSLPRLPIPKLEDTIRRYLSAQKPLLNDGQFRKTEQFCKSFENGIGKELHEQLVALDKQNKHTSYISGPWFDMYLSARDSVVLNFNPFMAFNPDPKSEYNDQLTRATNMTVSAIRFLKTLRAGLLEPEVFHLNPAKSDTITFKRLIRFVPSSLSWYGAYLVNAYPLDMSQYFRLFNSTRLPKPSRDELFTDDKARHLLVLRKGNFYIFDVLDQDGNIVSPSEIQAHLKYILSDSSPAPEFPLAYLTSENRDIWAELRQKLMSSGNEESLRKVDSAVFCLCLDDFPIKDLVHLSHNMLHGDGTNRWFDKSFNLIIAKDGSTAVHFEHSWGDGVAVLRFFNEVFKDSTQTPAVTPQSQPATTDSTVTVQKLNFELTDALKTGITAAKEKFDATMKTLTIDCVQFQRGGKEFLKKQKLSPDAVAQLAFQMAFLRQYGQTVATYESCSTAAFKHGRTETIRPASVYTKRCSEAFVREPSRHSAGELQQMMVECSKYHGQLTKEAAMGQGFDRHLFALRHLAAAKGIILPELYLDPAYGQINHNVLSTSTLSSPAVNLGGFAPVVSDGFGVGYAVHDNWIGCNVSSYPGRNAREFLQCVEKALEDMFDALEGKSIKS
Description: CPT2 inhibition, spectrophotometric DTNB (Ellman's reagent) assay. The conditions noted are these: human CPT2 expressed in P. pastoris, cell extract; carnitine 500 μM, palmitoyl-CoA 80 μM, DTNB 300 μM. The test is classed as biochemical. The procedure: (§1) The following tests were carried out in order to determine the activity of the compounds of the present invention. Background information on the performed assays can be found in: Jackson et al., 1999, Biochem. J. 341, 483-489 and Jackson et al., 2000, J. Biol. Chem. 275, 19560-19566.
(§2) Human and rat CPT2- and liver CPT1 cDNAs, and human muscle CPT1 cDNA were subcloned in pGAPZB or pGAPZA, respectively. These plasmids were used to transform P. pastoris strain X-33 via electroporation after the preparation of electrocompetent cells. High copy number clones were selected where necessary using 0.5 or 1 mg/ml Zeocin. Cultures for activity measurements were induced for 16 h in YPD medium (1% yeast extract, 2% peptone, 2% glucose). Crude cell extracts were prepared by disrupting the cells with glass beads or French Press, depending on fermenter sizes. After centrifugation, the cell-free extracts were resuspended in cell breaking buffer (50 mM Tris, pH7.4, 100 mM KCl, 1 mM EDTA) in the presence of a protease inhibitor cocktail, before aliquoting and freezing at −20° C.
(§3) CPT activity was measured using a spectrophotometric assay using 5,5′-dithio-bis-(2-nitrobenzoic acid) (DTNB) also called Ellman's reagent. The HS-CoA released on the formation of acylcarnitine from carnitine (500 μM) and palmitoyl-CoA (80 μM) reduced DTNB (300 μM) forming 5-mercapto-2-nitrobenzoic acid which absorbed at 410 nm with a molar extinction coefficient of 13600 M^−1cm^−1. The assay buffer contained 120 mM KCl, 25 mM Tris, pH 7.4, 1 mM EDTA. This assay was used for the identification of CPT inhibitors, particularly/preferentially CPT2-selective inhibitors, versus the liver and muscle CPT1 isoforms.

For test [2], the target named is T2, hL-CPT1 (Homo sapiens, UniProt P50416).
T2 construct: made in house; host or cells: Pichia pastoris strain X-33
T2 sequence (P50416 1-773): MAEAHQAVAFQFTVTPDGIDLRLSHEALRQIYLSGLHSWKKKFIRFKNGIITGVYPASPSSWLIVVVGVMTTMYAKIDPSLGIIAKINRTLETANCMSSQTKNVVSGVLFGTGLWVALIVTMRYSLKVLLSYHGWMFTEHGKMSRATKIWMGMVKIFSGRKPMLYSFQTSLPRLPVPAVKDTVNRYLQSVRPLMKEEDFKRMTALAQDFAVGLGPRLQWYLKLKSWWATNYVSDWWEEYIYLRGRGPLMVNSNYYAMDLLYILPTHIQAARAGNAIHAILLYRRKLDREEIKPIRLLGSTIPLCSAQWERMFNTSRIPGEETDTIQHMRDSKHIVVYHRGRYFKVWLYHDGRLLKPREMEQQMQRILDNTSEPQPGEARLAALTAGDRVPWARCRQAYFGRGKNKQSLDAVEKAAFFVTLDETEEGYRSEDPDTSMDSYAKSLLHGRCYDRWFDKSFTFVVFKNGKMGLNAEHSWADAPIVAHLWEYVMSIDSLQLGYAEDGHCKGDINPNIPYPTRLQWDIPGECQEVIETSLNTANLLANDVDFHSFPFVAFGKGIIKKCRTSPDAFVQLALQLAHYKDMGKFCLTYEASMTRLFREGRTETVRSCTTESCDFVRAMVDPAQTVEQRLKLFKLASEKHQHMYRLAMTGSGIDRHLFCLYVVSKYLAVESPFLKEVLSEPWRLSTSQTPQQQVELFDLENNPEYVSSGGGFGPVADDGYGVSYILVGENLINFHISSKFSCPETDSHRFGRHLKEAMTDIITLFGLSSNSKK
Description: liver CPT1 inhibition, spectrophotometric DTNB (Ellman's reagent) assay. The test is classed as biochemical. The following applies: human liver CPT1 expressed in P. pastoris, cell extract; carnitine 500 μM, palmitoyl-CoA 80 μM, DTNB 300 μM. The procedure: as §1, §2, §3

Usually IC50 stands for the midpoint of a concentration-inhibition curve. A high value points to a need for much substance. With `CN(C)C[C@@H](CC(=O)O)NC(=O)CCCCCCCCCc1ccsc1` [Example 43, (R)-4-Dimethylamino-3-(10-thiophen-3-yl-decanoylamino)-butyric acid], the IC50 was 118 nM in test [1] and 7310 nM in test [2]. Taken in the same sequence, the figures for `CN(C)C[C@@H](CC(=O)O)NC(=O)CCCCCCCOCc1cccc(F)c1` [Example 14, (R)-4-Dimethylamino-3-[8-(3-fluoro-benzyloxy)-octanoylamino]-butyric acid] were 783 nM and above 10000 nM. Taken in the same sequence, the figures for `CN(C)C[C@@H](CC(=O)O)NC(=O)CCCCCCCCOc1ccc(C(F)(F)F)cc1` [Example 27, (R)-4-Dimethylamino-3-[9-(4-trifluoromethyl-phenoxy)-nonanoylamino]-butyric acid] were 170 nM and 2190 nM.

For `CN(C)C[C@@H](CC(=O)O)NC(=O)CCCCCCCCCc1cncs1` [Example 44, (R)-4-Dimethylamino-3-(10-thiazol-5-yl-decanoylamino)-butyric acid], the concentration for half-maximal inhibition (IC50) in test [1] was 1060 nM; in test [2], above 10000 nM. In the same order, the values of `CN(C)C[C@@H](CC(=O)O)NC(=O)CCCCCCCCCCc1ccccc1` [Example 50, (R)-4-Dimethylamino-3-(11-phenyl-undecanoylamino)-butyric acid] are 2100 nM and above 10000 nM.

On to `CN(C)C[C@@H](CC(=O)O)NC(=O)CCCCCCCOCc1ccc(C(F)(F)F)c(F)c1` [Example 7, (R)-4-Dimethylamino-3-[8-(3-fluoro-4-trifluoromethyl-benzyloxy)-octanoylamino]-butyric acid], for which the IC50 turned out to be 591 nM in test [1] and 5990 nM in test [2].

As to `COc1ccc(COCCCCCCCC(=O)N[C@H](CC(=O)O)CN(C)C)cc1` [Example 8, (R)-4-Dimethylamino-3-[8-(4-methoxy-benzyloxy)-octanoylamino]-butyric acid], the IC50 in test [1] is 152 nM; in test [2] it was above 10000 nM. In the same order, the values of `COc1ccc(CCCCCCCCCC(=O)N[C@H](CC(=O)O)CN(C)C)cc1` [Example 38, (R)-4-Dimethylamino-3-[10-(4-methoxy-phenyl)-decanoylamino]-butyric acid] are 17 nM and 6910 nM.

As to `CN(C)C[C@@H](CC(=O)O)NC(=O)CCCCCCCCOc1ccc(F)cc1` [Example 20, (R)-4-Dimethylamino-3-[9-(4-fluoro-phenoxy)-nonanoylamino]-butyric acid], the IC50 was 21 nM in test [1] and 1000 nM in test [2]. Consider `CN(C)C[C@@H](CC(=O)O)NC(=O)CCCCCCCCOc1ccc(-c2ccccc2)cc1` [Example 25, (R)-3-[9-(Biphenyl-4-yloxy)-nonanoylamino]-4-dimethylamino-butyric acid], for which the IC50 in test [1] amounted to 19 nM; in test [2] it was 1470 nM. Consider `CN(C)C[C@@H](CC(=O)O)NC(=O)CCCCCCCOCc1ccc(-c2ccccc2)cc1` [Example 9, (R)-3-[8-(Biphenyl-4-ylmethoxy)-octanoylamino]-4-dimethylamino-butyric acid], for which the figures for the IC50 in test [1] and in test [2] were 2 nM and 5790 nM, respectively. With `CN(C)C[C@@H](CC(=O)O)NC(=O)CCCCCCCCOc1cccc2ccccc12` [Example 29, (R)-4-Dimethylamino-3-[9-(naphthalen-1-yloxy)-nonanoylamino]-butyric acid], the figures for the IC50 in test [1] and in test [2] were 160 nM and above 10000 nM, respectively.

Turning to `CN(C)C[C@@H](CC(=O)O)NC(=O)CCCCCCCCOc1cccc(F)c1F` [Example 21, (R)-3-[9-(2,3-Difluoro-phenoxy)-nonanoylamino]-4-dimethylamino-butyric acid], the IC50 amounted to 265 nM in test [1] and 6680 nM in test [2]. Taken in the same sequence, the figures for `CN(C)C[C@@H](CC(=O)O)NC(=O)CCCCCCCOCc1ccc(F)c(F)c1` [Example 1, (R)-3-[8-(3,4-Difluoro-benzyloxy)-octanoylamino]-4-dimethylamino-butyric acid] were 910 nM and 7770 nM.

Turning to `CN(C)C[C@@H](CC(=O)O)NC(=O)CCCCCCCCOc1cccc(F)c1` [Example 19, (R)-4-Dimethylamino-3-[9-(3-fluoro-phenoxy)-nonanoylamino]-butyric acid], the IC50 in test [1] was determined as 16 nM; in test [2], 2330 nM. In turn, `CN(C)C[C@@H](CC(=O)O)NC(=O)CCCCCCCCOCCc1ccccc1` [Example 54, (R)-4-Dimethylamino-3-(9-phenethyloxy-nonanoylamino)-butyric acid] displayed an IC50 in test [1] of 82 nM. `CN(C)C[C@@H](CC(=O)O)NC(=O)CCCCCCCCCc1ccccc1F` [Example 35, (R)-4-Dimethylamino-3-[10-(2-fluoro-phenyl)-decanoylamino]-butyric acid]: the IC50 came to 46 nM in test [1] and 3590 nM in test [2]. In the same order, the values of `CN(C)C[C@@H](CC(=O)O)NC(=O)CCCCCCCCOc1ccc(F)c(F)c1` [Example 23, (R)-3-[9-(3,4-Difluoro-phenoxy)-nonanoylamino]-4-dimethylamino-butyric acid] are 71 nM and 1660 nM. “(R)-3-{3-[6-(2,3-Difluoro-benzyloxy)-hexyl]-ureido}-4-dimethylamino-butyric acid [Example 62]”: the IC50 in test [1] turned out to be 1440 nM. As for `CN(C)C[C@H](CC(=O)O)NC(=O)CCCCCCCCCc1ccccc1` [Example 33, (S)-4-Dimethylamino-3-(10-phenyl-decanoylamino)-butyric acid], the IC50 in test [1] is 948 nM; in test [2], above 10000 nM.

In the case of `CN(C)C[C@@H](CC(=O)O)NC(=O)CCCCCCCCOc1ccccc1` [Example 31, (R)-4-Dimethylamino-3-(9-phenoxy-nonanoylamino)-butyric acid], the IC50 is 58 nM in test [1] and 2410 nM in test [2]. As for `CN(C)C[C@@H](CC(=O)O)NC(=O)CCCCCCCOCc1ccccc1` [Example 17, (R)-3-(8-Benzyloxy-octanoylamino)-4-dimethylamino-butyric acid], the figures for the IC50 in test [1] and in test [2] were 1560 nM and above 10000 nM, respectively. Compound `CN(C)C[C@@H](CC(=O)O)NC(=O)CCCCCCCOCCOc1ccccc1` [Example 56, (R)-4-Dimethylamino-3-[8-(2-phenoxy-ethoxy)-octanoylamino]-butyric acid] yielded a half-maximal inhibitory concentration (IC50) in test [1] of 101 nM. Regarding `CN(C)C[C@@H](CC(=O)O)NC(=O)CCCCCCCOCCCc1ccccc1` [Example 55, (R)-4-Dimethylamino-3-[8-(3-phenyl-propoxy)-octanoylamino]-butyric acid], the IC50 in test [1] was 65 nM. Still for that read-out and setting: the value for `CN(C)C[C@@H](CC(=O)O)NC(=O)CCCCCCCCCCOc1ccccc1` [Example 30, (R)-4-Dimethylamino-3-(11-phenoxy-undecanoylamino)-butyric acid] was 36 nM.
